Laboratory results taken from PMC8348142, “Antimicrobial Peptide Modifications against Clinically Isolated Antibiotic-Resistant Salmonella” (Molecules, 2021).
Ends that are not written are not given here.

Test system: clinical Salmonella isolates
Test: MBC, drop plate method, and MBC/MIC mode of action
Type: cell-based
Details: for MBC: drop plate on MHA from MIC plate, 37 °C, 18 h, thrice
Experimental: All 12 isolates of Salmonella used in this study were clinical isolates and anonymous left-overs from laboratory diagnoses. They were maintained in a 20% glycerol (Sigma-Aldrich) stock at −80 °C and further cultured on Mueller-Hinton agar (MHA, Oxoid, Hampshire, UK) at 37 °C for 18 h to obtain single colonies for antimicrobial assays. This study was approved by the Ethics Committee of the Faculty of Tropical Medicine (Mahidol University, Bangkok, Thailand; MUTM-EXMPT 2017-007).
The plate derived from the MIC assay was immediately tested for the MBC using a drop plate method. A volume of 10 µL of the culture from individual wells at MIC, 2MIC, and 4MIC was dropped on MHA plates. […] The experiment was thrice performed.
In order to determine whether the peptides have bacteriostatic or bactericidal activity, a ratio of MBC to MIC (MBC/MIC) was applied. The ratio >4 was indicative of bacteriostatic peptide, and ≤4 was inferred as bactericidal peptide.

FIRRIARLLRRIF-NH2 [Kn2-5R-NH2]
4 µM: GM of MBC (geometric mean over 12 clinical Salmonella isolates) | MBC (isolate 5 (Enteritidis)) | MBC (isolate 7 (Typhimurium)) | MBC (isolate 11 (I 1,4:i:-)) | MBC (isolate 18 (Stanley)) | MBC (isolate 26 (Typhimurium)) | MBC (isolate 27 (Typhimurium)) | MBC (isolate 55 (Typhimurium)) | MBC (isolate 61 (Enteritidis)) | MBC (isolate 69 (Typhimurium)) | MBC (isolate 76 (Enteritidis)) | MBC (isolate 78 (Enteritidis)) | MBC (isolate 107 (Typhimurium))
1: MBC/MIC ratio (≤4 bactericidal, >4 bacteriostatic, 12 clinical Salmonella isolates)
